Results reported in paper PMC12707346, “Discovery and validation of small molecule stabilizers of mutant triose phosphate isomerase (TPI) as potential lead candidates for TPI deficiency” (SLAS discovery : advancing life sciences R & D, 2025).
Values joined by “and” are separate entries in the source; they are usually repeats but may differ in a detail not shown here. Equal entries are not always repeated. Where two headings read alike, the source gives them in different places.

What was measured:
[1] = Mouse pharmacokinetics, 10 mg/kg i.p.; assay type: in vivo, CD-1 mice; details: CD-1, plasma, ip, 10 mg/kg intraperitoneal
Experimental: Mouse pharmacokinetics (PK) Mouse PK studies were performed exactly as described in [18-20] (except that Molport 002–877–424 was the test compound at 10 mg/kg i.p.) by Touchstone Biosciences (Ply-mouth Meeting, PA), following the National Research Council guide for the care and use of laboratory animals to ensure proper care, use, and human treatment of the animals used in the study, adhering to generally accepted procedures for animal housing, dosing and blood sampling, and following AVMA guidelines for euthanasia. All procedures were approved by an institutional review panel.
Plasma concentrations were measured as described to determine a concentration vs. time profile. The area under the plasma concentration vs time curve (AUC) was calculated using the linear trapezoidal method. Fitting of the data to obtain pharmacokinetic parameters was carried out using non-compartmental analysis. Key PK parameters reported following i.p. administration are as follows: terminal half-life t1/2, initial plasma concentration C0, area under the plasma concentration vs. time curve AUC, volume of distribution at steady-state Vss, total plasma clearance CLp, and mean residence time MRT. All parameters are expressed for individual animals as well as mean, standard deviation, and coefficient of variation.

[2] = Tissue distribution study in mice, 20 mg/kg i.p.; assay type: in vivo, C57BL/6 J mice; details: mouse; for Plasma or Tissue Homogenate Conc (individual animals) / concentration at 0.5 h / concentration at 1 h / concentration at 2 h / concentration at 4 h / concentration at 8 h: 20 mg/kg
Experimental: Male C57BL/6 J (Jackson Laboratories) wild type mice (age: 40–60 days) weighing 25–30 g, were used for the tissue distribution study. Mice were randomly assigned in two groups: blank (n = 1) and treatment. The treatment group received 20 mg/kg compound 424 intraperitoneally (n = 15; 3 animals per time point i.e., 0.5, 1, 2, 4, and 8 h). Molport 002–877–424 was formulated in a vehicle consisting of 20 % DMSO, 50 % PEG300, and 30 % sterile water. At each time point animals were euthanized via isoflurane overdose. Blood was collected in ETDA-coated tubes at each time points and centrifuged at 15,000 x g for 5 min. The separated plasma was stored at −80 °C. Following blood collection, liver, kidney, skeletal muscle and brain were isolated, rinsed in normal saline and approximately 100 mg of tissues were snap-frozen and stored at −80 °C. All plasma and tissue samples were shipped on dry ice to Touchstone Biosciences for further analysis. Sample preparation and analysis was performed at Touchstone Biosciences exactly as described in [20].

c1ccc(-c2nnc(-c3ccccn3)nc2NC2CCCCC2)cc1 [MolPort-002-877-424, C1CCC(CC1)Nc2nc(nnc2c3ccccc3)c4ccccn4]
Tmax [1]: ≤ 0.5 h
Cmax ([1]; read-out: peak plasma concentration (Cmax)): 9910 ng/mL
Cmax ([1]; read-out: peak plasma concentration (Cmax), molar): ~30 µM
half-life ([1]; read-out: terminal half-life (t1/2) (converted)): 4.64 h
AUC(0-inf) ([1]; read-out: total systemic exposure (AUCinf)): 66000 ng·h/mL
concentration at 24 h ([1]; at 24 h, read-out: last measurable plasma concentration): 240 ng/mL
Plasma or Tissue Homogenate Conc (individual animals) ([2]; Brain, 0.5 h, IP 20 mg/kg): 391 ng/mL and 321 ng/mL
Plasma or Tissue Homogenate Conc (individual animals) ([2]; Brain, 1 h, IP 20 mg/kg): 323 ng/mL and 318 ng/mL
Plasma or Tissue Homogenate Conc (individual animals) ([2]; Brain, 2 h, IP 20 mg/kg): 160 ng/mL and 129 ng/mL
Plasma or Tissue Homogenate Conc (individual animals) ([2]; Brain, 4 h, IP 20 mg/kg): 69.3 ng/mL and 59.0 ng/mL
Plasma or Tissue Homogenate Conc (individual animals) ([2]; Brain, 8 h, IP 20 mg/kg): 29.7 ng/mL and 17.1 ng/mL
Plasma or Tissue Homogenate Conc (individual animals) ([2]; Kidney, 0.5 h, IP 20 mg/kg): 2870 ng/mL and 2290 ng/mL
Plasma or Tissue Homogenate Conc (individual animals) ([2]; Kidney, 1 h, IP 20 mg/kg): 2330 ng/mL and 2470 ng/mL
Plasma or Tissue Homogenate Conc (individual animals) ([2]; Kidney, 2 h, IP 20 mg/kg): 1240 ng/mL and 925 ng/mL
Plasma or Tissue Homogenate Conc (individual animals) ([2]; Kidney, 4 h, IP 20 mg/kg): 538 ng/mL and 466 ng/mL
Plasma or Tissue Homogenate Conc (individual animals) ([2]; Kidney, 8 h, IP 20 mg/kg): 239 ng/mL and 196 ng/mL
Plasma or Tissue Homogenate Conc (individual animals) ([2]; Liver, 0.5 h, IP 20 mg/kg): 3410 ng/mL and 3100 ng/mL
Plasma or Tissue Homogenate Conc (individual animals) ([2]; Liver, 1 h, IP 20 mg/kg): 3010 ng/mL and 3640 ng/mL
Plasma or Tissue Homogenate Conc (individual animals) ([2]; Liver, 2 h, IP 20 mg/kg): 1750 ng/mL and 1580 ng/mL
Plasma or Tissue Homogenate Conc (individual animals) ([2]; Liver, 4 h, IP 20 mg/kg): 777 ng/mL and 744 ng/mL
Plasma or Tissue Homogenate Conc (individual animals) ([2]; Liver, 8 h, IP 20 mg/kg): 311 ng/mL and 303 ng/mL
Plasma or Tissue Homogenate Conc (individual animals) ([2]; Muscle, 0.5 h, IP 20 mg/kg): 648 ng/mL and 456 ng/mL
Plasma or Tissue Homogenate Conc (individual animals) ([2]; Muscle, 1 h, IP 20 mg/kg): 354 ng/mL and 480 ng/mL
Plasma or Tissue Homogenate Conc (individual animals) ([2]; Muscle, 2 h, IP 20 mg/kg): 206 ng/mL and 218 ng/mL
Plasma or Tissue Homogenate Conc (individual animals) ([2]; Muscle, 4 h, IP 20 mg/kg): 92.1 ng/mL and 94.2 ng/mL
Plasma or Tissue Homogenate Conc (individual animals) ([2]; Muscle, 8 h, IP 20 mg/kg): 39.8 ng/mL and 33.3 ng/mL
Plasma or Tissue Homogenate Conc (individual animals) ([2]; Plasma, 0.5 h, IP 20 mg/kg): 10300 ng/mL and 8770 ng/mL
Plasma or Tissue Homogenate Conc (individual animals) ([2]; Plasma, 1 h, IP 20 mg/kg): 8560 ng/mL and 11200 ng/mL
Plasma or Tissue Homogenate Conc (individual animals) ([2]; Plasma, 2 h, IP 20 mg/kg): 4380 ng/mL and 4500 ng/mL
Plasma or Tissue Homogenate Conc (individual animals) ([2]; Plasma, 4 h, IP 20 mg/kg): 2660 ng/mL and 1990 ng/mL
Plasma or Tissue Homogenate Conc (individual animals) ([2]; Plasma, 8 h, IP 20 mg/kg): 1310 ng/mL and 925 ng/mL
Kp ([2]; male, C57BL/6 J, brain, ip, 20 mg/kg i.p., read-out: mean tissue to plasma ratios (brain)): ≤ 0.134
Kp at 0.5 h ([2]; male, C57BL/6J, kidney/plasma, Kidney, 0.5 h, IP 20 mg/kg, read-out: Mean Tissue/ Plasma Conc Ratio): 0.94
Kp at 0.5 h ([2]; male, C57BL/6J, liver/plasma, Liver, 0.5 h, IP 20 mg/kg, read-out: Mean Tissue/ Plasma Conc Ratio): 1.38
Kp at 1 h ([2]; male, C57BL/6J, liver/plasma, Liver, 1 h, IP 20 mg/kg, read-out: Mean Tissue/ Plasma Conc Ratio): 1.33
Kp at 2 h ([2]; male, C57BL/6J, liver/plasma, Liver, 2 h, IP 20 mg/kg, read-out: Mean Tissue/ Plasma Conc Ratio): 1.3
Kp at 4 h ([2]; male, C57BL/6J, liver/plasma, Liver, 4 h, IP 20 mg/kg, read-out: Mean Tissue/ Plasma Conc Ratio): 1.25
Kp at 8 h ([2]; male, C57BL/6J, liver/plasma, Liver, 8 h, IP 20 mg/kg, read-out: Mean Tissue/ Plasma Conc Ratio): 1.06
concentration at 0.5 h ([2]; male, C57BL/6 J, brain homogenate, ip, Brain, 0.5 h, IP 20 mg/kg, read-out: Mean Plasma or Tissue Homogenate Conc): 350 ng/mL
concentration at 0.5 h ([2]; male, C57BL/6 J, brain homogenate, ip, Brain, 0.5 h, IP 20 mg/kg, read-out: Plasma or Tissue Homogenate Conc (individual animals)): 339 ng/mL
concentration at 1 h ([2]; male, C57BL/6 J, brain homogenate, ip, Brain, 1 h, IP 20 mg/kg, read-out: Mean Plasma or Tissue Homogenate Conc): 276 ng/mL
concentration at 1 h ([2]; male, C57BL/6 J, brain homogenate, ip, Brain, 1 h, IP 20 mg/kg, read-out: Plasma or Tissue Homogenate Conc (individual animals)): 186 ng/mL
concentration at 2 h ([2]; male, C57BL/6 J, brain homogenate, ip, Brain, 2 h, IP 20 mg/kg, read-out: Mean Plasma or Tissue Homogenate Conc): 136 ng/mL
concentration at 2 h ([2]; male, C57BL/6 J, brain homogenate, ip, Brain, 2 h, IP 20 mg/kg, read-out: Plasma or Tissue Homogenate Conc (individual animals)): 118 ng/mL
concentration at 4 h ([2]; male, C57BL/6 J, brain homogenate, ip, Brain, 4 h, IP 20 mg/kg, read-out: Mean Plasma or Tissue Homogenate Conc): 57.5 ng/mL
concentration at 4 h ([2]; male, C57BL/6 J, brain homogenate, ip, Brain, 4 h, IP 20 mg/kg, read-out: Plasma or Tissue Homogenate Conc (individual animals)): 44.1 ng/mL
concentration at 8 h ([2]; male, C57BL/6 J, brain homogenate, ip, Brain, 8 h, IP 20 mg/kg, read-out: Mean Plasma or Tissue Homogenate Conc): 22.3 ng/mL
concentration at 8 h ([2]; male, C57BL/6 J, brain homogenate, ip, Brain, 8 h, IP 20 mg/kg, read-out: Plasma or Tissue Homogenate Conc (individual animals)): 20.2 ng/mL
concentration at 0.5 h ([2]; male, C57BL/6 J, brain, ip, Brain, 0.5 h, IP 20 mg/kg, read-out: Mean Tissue): 1400 ng/g
concentration at 1 h ([2]; male, C57BL/6 J, brain, ip, Brain, 1 h, IP 20 mg/kg, read-out: Mean Tissue): 1100 ng/g
concentration at 2 h ([2]; male, C57BL/6 J, brain, ip, Brain, 2 h, IP 20 mg/kg, read-out: Mean Tissue): 543 ng/g
concentration at 4 h ([2]; male, C57BL/6 J, brain, ip, Brain, 4 h, IP 20 mg/kg, read-out: Mean Tissue): 230 ng/g
concentration at 8 h ([2]; male, C57BL/6 J, brain, ip, Brain, 8 h, IP 20 mg/kg, read-out: Mean Tissue): 89.3 ng/g
concentration at 0.5 h ([2]; male, C57BL/6J, kidney homogenate, ip, Kidney, 0.5 h, IP 20 mg/kg, read-out: Mean Plasma or Tissue Homogenate Conc): 2460 ng/mL
concentration at 0.5 h ([2]; male, C57BL/6J, kidney homogenate, ip, Kidney, 0.5 h, IP 20 mg/kg, read-out: Plasma or Tissue Homogenate Conc (individual animals)): 2210 ng/mL
concentration at 1 h ([2]; male, C57BL/6 J, kidney homogenate, ip, Kidney, 1 h, IP 20 mg/kg, read-out: Mean Plasma or Tissue Homogenate Conc): 2130 ng/mL
concentration at 1 h ([2]; male, C57BL/6 J, kidney homogenate, ip, Kidney, 1 h, IP 20 mg/kg, read-out: Plasma or Tissue Homogenate Conc (individual animals)): 1580 ng/mL
concentration at 2 h ([2]; male, C57BL/6 J, kidney homogenate, ip, Kidney, 2 h, IP 20 mg/kg, read-out: Mean Plasma or Tissue Homogenate Conc): 1020 ng/mL
concentration at 2 h ([2]; male, C57BL/6 J, kidney homogenate, ip, Kidney, 2 h, IP 20 mg/kg, read-out: Plasma or Tissue Homogenate Conc (individual animals)): 889 ng/mL
concentration at 4 h ([2]; male, C57BL/6 J, kidney homogenate, ip, Kidney, 4 h, IP 20 mg/kg, read-out: Mean Plasma or Tissue Homogenate Conc): 439 ng/mL
concentration at 4 h ([2]; male, C57BL/6 J, kidney homogenate, ip, Kidney, 4 h, IP 20 mg/kg, read-out: Plasma or Tissue Homogenate Conc (individual animals)): 314 ng/mL
concentration at 8 h ([2]; male, C57BL/6 J, kidney homogenate, ip, Kidney, 8 h, IP 20 mg/kg, read-out: Mean Plasma or Tissue Homogenate Conc): 196 ng/mL
